# US20230085307A1, “PYRIDAZINONE COMPOUND AND HERBICIDE” (NISSAN CHEMICAL CORPORATION, priority 2019, published 2023)
# What was measured:
# lambsquarters [1] = experiment: Test Example 4: herbicidal effect by soil treatment (Table 19, symbol O); format: in vivo, lambsquarters (Chenopodium album)
# Summary of the method: (§1)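 Seeds were sown in sterilized diluvial soil and covered with about 1.5 cm of soil. An emulsion formulation diluted with water to a predetermined herbicide amount was sprayed evenly onto the soil surface. Plants grew in a greenhouse at 25° C. to 30° C., and the effect was scored three weeks after application using criteria from an earlier test.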
# Italian ryegrass [2] = experiment: Test Example 4: herbicidal effect by soil treatment (Table 19, symbol K); format: in vivo, Italian ryegrass (Lolium multiflorum)
# Summary of the method: as §1
# persian speedwell [3] = experiment: Test Example 5: herbicidal effect by foliage application, plastic box (Table 20, symbol R); format: in vivo, Persian speedwell (Veronica persica)
# Summary of the method: (§2)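 Plants sown in sterilized diluvial soil and grown 14 days in a greenhouse at 25° C to 30° C, then sprayed on the foliage with the compound's emulsion diluted in water to a predetermined herbicide amount. Injury to weeds and crops scored three weeks after application on a visual rating scale.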
# barnyard grass [4] = experiment: Test Example 5: herbicidal effect by foliage application, plastic box (Table 20, symbol H); format: in vivo, barnyard grass (Echinochloa crus-galli)
# Summary of the method: as §2
# blackgrass [5] = experiment: Test Example 5: herbicidal effect by foliage application, plastic box (Table 20, symbol J); format: in vivo, blackgrass (Alopecurus myosuroides)
# Summary of the method: as §2
# windgrass [6] = experiment: Test Example 4: herbicidal effect by soil treatment (Table 19, symbol L); format: in vivo, windgrass (Apera spica-venti)
# Summary of the method: as §1
# southern crabgrass [7] = experiment: Test Example 5: herbicidal effect by foliage application, plastic box (Table 20, symbol F); format: in vivo, southern crabgrass (Digitaria ciliaris)
# Summary of the method: as §2
# velvetleaf [8] = experiment: Test Example 5: herbicidal effect by foliage application, plastic box (Table 20, symbol M); format: in vivo, velvetleaf (Abutilon theophrasti)
# Summary of the method: as §2
# wild oat [9] = experiment: Test Example 4: herbicidal effect by soil treatment (Table 19, symbol I); format: in vivo, wild oat (Avena fatua)
# Summary of the method: as §1
# green foxtail [10] = experiment: Test Example 5: herbicidal effect by foliage application, plastic box (Table 20, symbol G); format: in vivo, green foxtail (Setaria viridis)
# Summary of the method: as §2
# windgrass [11] = experiment: Test Example 5: herbicidal effect by foliage application, plastic box (Table 20, symbol L); format: in vivo, windgrass (Apera spica-venti)
# Summary of the method: as §2
# redroot pigweed [12] = experiment: Test Example 5: herbicidal effect by foliage application, plastic box (Table 20, symbol N); format: in vivo, redroot pigweed (Amaranthus retroflexus)
# Summary of the method: as §2
# southern crabgrass [13] = experiment: Test Example 4: herbicidal effect by soil treatment (Table 19, symbol F); format: in vivo, southern crabgrass (Digitaria ciliaris)
# Summary of the method: as §1
# persian speedwell [14] = experiment: Test Example 4: herbicidal effect by soil treatment (Table 19, symbol R); format: in vivo, Persian speedwell (Veronica persica)
# Summary of the method: as §1
# barnyard grass [15] = experiment: Test Example 3: herbicidal effect by foliage application, Wagner pot (Table 18, symbol H); format: in vivo, barnyard grass (Echinochloa crus-galli); details: 320 g/ha
# Summary of the method: (§3)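 Plants were sown in alluvial soil held under 0.1–0.5 cm standing water and grown 14 days in a greenhouse at 25–30 °C. An emulsifiable formulation, water-diluted to the set dose, was then sprayed onto the foliage, and effects were scored three weeks later using previously defined criteria.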
# green foxtail [16] = experiment: Test Example 4: herbicidal effect by soil treatment (Table 19, symbol G); format: in vivo, green foxtail (Setaria viridis)
# Summary of the method: as §1
# redroot pigweed [17] = experiment: Test Example 4: herbicidal effect by soil treatment (Table 19, symbol N); format: in vivo, redroot pigweed (Amaranthus retroflexus)
# Summary of the method: as §1
# rice flat sedge = experiment: Test Example 3: herbicidal effect by foliage application, Wagner pot (Table 18, symbol E); format: in vivo, rice flat sedge (Cyperus iria); details: 320 g/ha
# Summary of the method: as §3
# chickweed [18] = experiment: Test Example 4: herbicidal effect by soil treatment (Table 19, symbol P); format: in vivo, common chickweed (Stellaria media)
# Summary of the method: as §1
# blackgrass [19] = experiment: Test Example 4: herbicidal effect by soil treatment (Table 19, symbol J); format: in vivo, blackgrass (Alopecurus myosuroides)
# Summary of the method: as §1
# chickweed [20] = experiment: Test Example 5: herbicidal effect by foliage application, plastic box (Table 20, symbol P); format: in vivo, common chickweed (Stellaria media)
# Summary of the method: as §2
# velvetleaf [21] = experiment: Test Example 4: herbicidal effect by soil treatment (Table 19, symbol M); format: in vivo, velvetleaf (Abutilon theophrasti)
# Summary of the method: as §1
# Italian ryegrass [22] = experiment: Test Example 5: herbicidal effect by foliage application, plastic box (Table 20, symbol K); format: in vivo, Italian ryegrass (Lolium multiflorum)
# Summary of the method: as §2
# Chinese sprangletop = experiment: Test Example 3: herbicidal effect by foliage application, Wagner pot (Table 18, symbol D); format: in vivo, chinese sprangletop (Leptochloa chinensis); details: 320 g/ha
# Summary of the method: as §3
# barnyard grass [23] = experiment: Test Example 4: herbicidal effect by soil treatment (Table 19, symbol H); format: in vivo, barnyard grass (Echinochloa crus-galli)
# Summary of the method: as §1
# wild oat [24] = experiment: Test Example 5: herbicidal effect by foliage application, plastic box (Table 20, symbol I); format: in vivo, wild oat (Avena fatua)
# Summary of the method: as §2
# lambsquarters [25] = experiment: Test Example 5: herbicidal effect by foliage application, plastic box (Table 20, symbol O); format: in vivo, lambsquarters (Chenopodium album)
# Summary of the method: as §2
# [26] = foliage application, AAH 320 g/ha, three weeks after application
# [27] = amount of applied herbicide 320 g/ha
# [28] = amount of applied herbicide 320 g/ha, foliage application after 14-day growth, evaluated three weeks after application
compound,measurement,setting,value
CCCC(=O)Oc1c(OC)nn(C)c(=O)c1-c1c(-c2cc(Cl)ccc2OC)sc2ccccc12 [1-179],"O: lambsquarters, herbicidal effect rating",lambsquarters [1]; AAH 320 g/ha,0 (Herbicidal rate of 5% or less (almost no effect))
same,"K: Italian ryegrass, herbicidal effect rating",Italian ryegrass [2]; AAH 320 g/ha,0 (Herbicidal rate of 5% or less (almost no effect))
same,"R: persian speedwell, herbicidal effect",persian speedwell [3]; [26],4 (Herbicidal rate of 70% or more and less than 90%)
same,"H: barnyard grass, herbicidal effect",barnyard grass [4]; [26],3 (Herbicidal rate of 40% or more and less than 70%)
same,"J: blackgrass, herbicidal effect",blackgrass [5]; [26],0 (Herbicidal rate of 5% or less (almost no effect))
same,"L: windgrass, herbicidal effect rating",windgrass [6]; AAH 320 g/ha,0 (Herbicidal rate of 5% or less (almost no effect))
same,"F: southern crabgrass, herbicidal effect",southern crabgrass [7]; [26],3 (Herbicidal rate of 40% or more and less than 70%)
same,"M: velvetleaf, herbicidal effect",velvetleaf [8]; [26],2 (Herbicidal rate of 20% or more and less than 40%)
same,"I: wild oat, herbicidal effect rating",wild oat [9]; AAH 320 g/ha,0 (Herbicidal rate of 5% or less (almost no effect))
same,"G: green foxtail, herbicidal effect",green foxtail [10]; [26],3 (Herbicidal rate of 40% or more and less than 70%)
same,"L: windgrass, herbicidal effect",windgrass [11]; [26],1 (Herbicidal rate of 5% or more and less than 20%)
same,"N: redroot pigweed, herbicidal effect",redroot pigweed [12]; [26],4 (Herbicidal rate of 70% or more and less than 90%)
same,"F: southern crabgrass, herbicidal effect rating",southern crabgrass [13]; AAH 320 g/ha,0 (Herbicidal rate of 5% or less (almost no effect))
same,"R: persian speedwell, herbicidal effect rating",persian speedwell [14]; AAH 320 g/ha,4 (Herbicidal rate of 70% or more and less than 90%)
same,"herbicidal effect on H (barnyard grass), rating 0-5",barnyard grass [15],4 (Herbicidal rate of 70% or more and less than 90%)
same,"G: green foxtail, herbicidal effect rating",green foxtail [16]; AAH 320 g/ha,0 (Herbicidal rate of 5% or less (almost no effect))
same,"N: redroot pigweed, herbicidal effect rating",redroot pigweed [17]; AAH 320 g/ha,3 (Herbicidal rate of 40% or more and less than 70%)
same,"herbicidal effect on E (rice flat sedge), rating 0-5",rice flat sedge,3 (Herbicidal rate of 40% or more and less than 70%)
same,"P: chickweed, herbicidal effect rating",chickweed [18]; AAH 320 g/ha,4 (Herbicidal rate of 70% or more and less than 90%)
same,"J: blackgrass, herbicidal effect rating",blackgrass [19]; AAH 320 g/ha,0 (Herbicidal rate of 5% or less (almost no effect))
same,"P: chickweed, herbicidal effect",chickweed [20]; [26],4 (Herbicidal rate of 70% or more and less than 90%)
same,"M: velvetleaf, herbicidal effect rating",velvetleaf [21]; AAH 320 g/ha,0 (Herbicidal rate of 5% or less (almost no effect))
same,"K: Italian ryegrass, herbicidal effect",Italian ryegrass [22]; [26],0 (Herbicidal rate of 5% or less (almost no effect))
same,"herbicidal effect on D (Chinese sprangletop), rating 0-5",Chinese sprangletop,0 (Herbicidal rate of 5% or less (almost no effect))
same,"H: barnyard grass, herbicidal effect rating",barnyard grass [23]; AAH 320 g/ha,0 (Herbicidal rate of 5% or less (almost no effect))
same,"I: wild oat, herbicidal effect",wild oat [24]; [26],3 (Herbicidal rate of 40% or more and less than 70%)
same,"O: lambsquarters, herbicidal effect",lambsquarters [25]; [26],3 (Herbicidal rate of 40% or more and less than 70%)
Cc1nn(C)c(=O)c(-c2c(-c3ccc(OC(F)(F)F)cc3)sc3c(C)cccc23)c1O [4-130],"O: lambsquarters, herbicidal effect grade",lambsquarters [1]; [27],1 (Herbicidal rate of 5% or more and less than 20%)
same,"K: Italian ryegrass, herbicidal effect grade",Italian ryegrass [2]; [27],0 (Herbicidal rate of 5% or less (almost no effect))
same,"Herbicidal effect by foliage application, R: persian speedwell",persian speedwell [3]; [28],5 (Herbicidal rate of 90% or more (almost completely withered))
same,"Herbicidal effect by foliage application, H: barnyard grass",barnyard grass [4]; [28],0 (Herbicidal rate of 5% or less (almost no effect))
same,"Herbicidal effect by foliage application, J: blackgrass",blackgrass [5]; [28],3 (Herbicidal rate of 40% or more and less than 70%)
same,"L: windgrass, herbicidal effect grade",windgrass [6]; [27],0 (Herbicidal rate of 5% or less (almost no effect))
same,"Herbicidal effect by foliage application, F: southern crabgrass",southern crabgrass [7]; [28],0 (Herbicidal rate of 5% or less (almost no effect))
same,"Herbicidal effect by foliage application, M: velvetleaf",velvetleaf [8]; [28],4 (Herbicidal rate of 70% or more and less than 90%)
same,"I: wild oat, herbicidal effect grade",wild oat [9]; [27],0 (Herbicidal rate of 5% or less (almost no effect))
same,"Herbicidal effect by foliage application, G: green foxtail",green foxtail [10]; [28],0 (Herbicidal rate of 5% or less (almost no effect))
same,"Herbicidal effect by foliage application, L: windgrass",windgrass [11]; [28],3 (Herbicidal rate of 40% or more and less than 70%)
same,"Herbicidal effect by foliage application, N: redroot pigweed",redroot pigweed [12]; [28],5 (Herbicidal rate of 90% or more (almost completely withered))
same,"F: southern crabgrass, herbicidal effect grade",southern crabgrass [13]; [27],0 (Herbicidal rate of 5% or less (almost no effect))
same,"R: persian speedwell, herbicidal effect grade",persian speedwell [14]; [27],4 (Herbicidal rate of 70% or more and less than 90%)
same,herbicidal effect on barnyard grass (H),barnyard grass [15],3 (Herbicidal rate of 40% or more and less than 70%)
same,"G: green foxtail, herbicidal effect grade",green foxtail [16]; [27],0 (Herbicidal rate of 5% or less (almost no effect))
same,"N: redroot pigweed, herbicidal effect grade",redroot pigweed [17]; [27],5 (Herbicidal rate of 90% or more (almost completely withered))
same,herbicidal effect on rice flat sedge (E),rice flat sedge,4 (Herbicidal rate of 70% or more and less than 90%)
same,"P: chickweed, herbicidal effect grade",chickweed [18]; [27],1 (Herbicidal rate of 5% or more and less than 20%)
same,"J: blackgrass, herbicidal effect grade",blackgrass [19]; [27],0 (Herbicidal rate of 5% or less (almost no effect))
same,"Herbicidal effect by foliage application, P: chickweed",chickweed [20]; [28],5 (Herbicidal rate of 90% or more (almost completely withered))
same,"M: velvetleaf, herbicidal effect grade",velvetleaf [21]; [27],2 (Herbicidal rate of 20% or more and less than 40%)
same,"Herbicidal effect by foliage application, K: Italian ryegrass",Italian ryegrass [22]; [28],3 (Herbicidal rate of 40% or more and less than 70%)
same,herbicidal effect on Chinese sprangletop (D),Chinese sprangletop,0 (Herbicidal rate of 5% or less (almost no effect))
same,"H: barnyard grass, herbicidal effect grade",barnyard grass [23]; [27],0 (Herbicidal rate of 5% or less (almost no effect))
same,"Herbicidal effect by foliage application, I: wild oat",wild oat [24]; [28],0 (Herbicidal rate of 5% or less (almost no effect))
same,"Herbicidal effect by foliage application, O: lambsquarters",lambsquarters [25]; [28],5 (Herbicidal rate of 90% or more (almost completely withered))
